ChEMBL document CHEMBL1770127, “2-(2-Aminothiazol-4-yl)pyrrolidine-based tartrate diamides as potent, selective and orally bioavailable TACE inhibitors” (Bioorg Med Chem Lett, 2011)
pIC50, pKi: −log10 of the molar value.

Columns and labels:
[1] = target: T1, Disintegrin and metalloproteinase domain-containing protein 17 (Homo sapiens, UniProt P78536); assay: Inhibition of TACE
[2] = Plasma concentration in Sprague-Dawley rat at 10 mg/kg, po measured after 6 hrs by LC/MS/MS analysis; type: ADME, organism-based; parameters: dose 10 mg/kg, route oral
[3] = AUC in Sprague-Dawley rat at 10 mg/kg, po measured within 6 hrs after post-dosing by LC/MS/MS analysis; type: ADME, organism-based; parameters: time < 6 hr, dose 10 mg/kg, route oral; details: plasma
[4] = target: T1, Disintegrin and metalloproteinase domain-containing protein 17; assay: Inhibition of TACE by cell based assay
[5] = target: T2, Interstitial collagenase (Homo sapiens, UniProt P03956); assay: Inhibition of MMP1
T2 sequence (P03956 whole entry): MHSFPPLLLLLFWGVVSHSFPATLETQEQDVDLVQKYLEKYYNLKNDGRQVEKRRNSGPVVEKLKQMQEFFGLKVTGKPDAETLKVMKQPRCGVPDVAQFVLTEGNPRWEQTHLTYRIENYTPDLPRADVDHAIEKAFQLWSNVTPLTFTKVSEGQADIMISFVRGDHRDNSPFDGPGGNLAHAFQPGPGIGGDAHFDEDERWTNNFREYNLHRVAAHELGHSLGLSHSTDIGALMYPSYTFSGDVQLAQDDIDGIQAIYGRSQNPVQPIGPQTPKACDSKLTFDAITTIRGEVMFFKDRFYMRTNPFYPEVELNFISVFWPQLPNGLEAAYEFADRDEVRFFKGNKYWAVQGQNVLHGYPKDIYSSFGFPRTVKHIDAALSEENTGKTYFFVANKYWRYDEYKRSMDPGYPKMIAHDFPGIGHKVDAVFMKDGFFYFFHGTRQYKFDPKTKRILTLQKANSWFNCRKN

T1 sequence (P78536 whole entry, the tested form may be a part): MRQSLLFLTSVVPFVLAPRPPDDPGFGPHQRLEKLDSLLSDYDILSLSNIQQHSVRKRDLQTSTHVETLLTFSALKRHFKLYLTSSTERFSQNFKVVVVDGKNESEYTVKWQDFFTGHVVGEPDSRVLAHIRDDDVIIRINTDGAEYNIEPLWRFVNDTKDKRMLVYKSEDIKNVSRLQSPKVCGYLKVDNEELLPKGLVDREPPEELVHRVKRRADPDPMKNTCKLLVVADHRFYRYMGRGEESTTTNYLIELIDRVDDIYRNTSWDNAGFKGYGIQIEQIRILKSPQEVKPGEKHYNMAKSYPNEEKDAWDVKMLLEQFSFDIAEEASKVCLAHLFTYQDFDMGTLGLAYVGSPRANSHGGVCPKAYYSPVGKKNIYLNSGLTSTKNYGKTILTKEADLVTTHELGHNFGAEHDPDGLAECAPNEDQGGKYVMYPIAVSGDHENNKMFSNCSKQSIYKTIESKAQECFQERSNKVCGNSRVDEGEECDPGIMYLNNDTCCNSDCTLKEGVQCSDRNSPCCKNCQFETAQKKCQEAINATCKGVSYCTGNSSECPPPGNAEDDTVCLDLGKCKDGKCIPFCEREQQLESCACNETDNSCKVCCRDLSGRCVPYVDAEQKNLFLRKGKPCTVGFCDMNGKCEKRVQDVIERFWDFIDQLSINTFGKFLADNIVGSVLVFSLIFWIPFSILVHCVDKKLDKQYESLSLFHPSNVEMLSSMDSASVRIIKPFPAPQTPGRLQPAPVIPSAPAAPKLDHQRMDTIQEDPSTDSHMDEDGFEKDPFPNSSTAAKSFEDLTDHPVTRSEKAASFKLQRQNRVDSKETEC

Structure (SMILES) | pKi [1] | concentration at 6 h [2] [µM] | AUC at 6 h [3] [µM·h] | pIC50 [4] | pKi [5]
C[C@@H](NC(=O)[C@H](O)[C@@H](O)C(=O)N1CCC[C@@H]1c1csc(N(C)C)n1)c1ccc(-n2cccn2)cc1 | 7.19 |  |  |  | 
CCCNc1nc([C@H]2CCCN2C(=O)[C@H](O)[C@@H](O)C(=O)N[C@H](C)c2ccc(-n3cccn3)cc2)cs1 | 8.40 | 5.4 | 48.3 | 5.35 | 
CNc1nc(C2(C)CCCN2C(=O)[C@H](O)[C@@H](O)C(=O)N[C@H](C)c2ccc(-n3cccn3)cc2)cs1 (mixture of isomers) | 8.05 |  | 2.44 | 4.86 | 
CCNc1nc([C@H]2C[C@@H](C)CN2C(=O)[C@H](O)[C@@H](O)C(=O)N[C@H](C)c2ccc(-n3cccn3)cc2)cs1 | 8.22 |  | 5.62 | 5.39 | 
CNc1nc([C@H]2CC(F)(F)CN2C(=O)[C@H](O)[C@@H](O)C(=O)N[C@H](C)c2ccc(-n3cccn3)cc2)cs1 | 8.40 |  | 1.42 | 5.56 | 
C[C@@H](NC(=O)[C@H](O)[C@@H](O)C(=O)N1CCC[C@@H]1c1nccs1)c1ccc(-n2cccn2)cc1 | 8.00 |  |  |  | 
Cc1nc([C@H]2CCCN2C(=O)[C@H](O)[C@@H](O)C(=O)N[C@H](C)c2ccc(-n3cccn3)cc2)cs1 | 8.00 |  |  |  | 
C[C@@H](NC(=O)[C@H](O)[C@@H](O)C(=O)N1CCC[C@@H]1c1csc(Nc2cccnc2)n1)c1ccc(-n2cccn2)cc1 | 8.70 |  |  | 5.26 | 
C[C@@H](NC(=O)[C@H](O)[C@@H](O)C(=O)N1CC=C[C@@H]1c1cccc(Cl)c1)c1ccc(-n2cccn2)cc1 | 9.30 |  | 0.461 |  | 
CNc1nc([C@H]2C=CCN2C(=O)[C@H](O)[C@@H](O)C(=O)N[C@H](C)c2ccc(-n3cccn3)cc2)cs1 | 9.22 |  | 1.81 | 5.87 | 
C[C@@H](NC(=O)[C@H](O)[C@@H](O)C(=O)N1CC[C@H](O)C1c1cccc(Cl)c1)c1ccc(-n2cccn2)cc1 (mixture of isomers) | 8.17 |  | 4.76 |  | 
C[C@@H](NC(=O)[C@H](O)[C@@H](O)C(=O)N1CCC[C@@H]1c1cccc(Cl)c1)c1ccc(-n2cccn2)cc1 | 9.10 | 0.096 | 2.95 |  | < 4.00
C[C@@H](NC(=O)[C@H](O)[C@@H](O)C(=O)N1CCC[C@@H]1c1csc(N2CCCCC2)n1)c1ccc(-n2cccn2)cc1 | 7.41 |  | 1.96 |  | 
C[C@@H](NC(=O)[C@H](O)[C@@H](O)C(=O)N1C[C@H](O)CC1c1cccc(Cl)c1)c1ccc(-n2cccn2)cc1 (mixture of isomers) | 8.12 |  | 3.91 |  | 
CNc1nc([C@H]2c3ccc(F)cc3CN2C(=O)[C@H](O)[C@@H](O)C(=O)N[C@H](C)c2ccc(-n3cccn3)cc2)cs1 | 8.70 |  |  | 6.54 | 
CNc1nc([C@H]2CCCN2C(=O)[C@H](O)[C@@H](O)C(=O)N[C@H](C)c2ccc(-n3cccn3)cc2)c(S(C)(=O)=O)s1 |  |  |  | 6.14 | 
CCNc1nc([C@H]2c3cnc(N)nc3CN2C(=O)[C@H](O)[C@@H](O)C(=O)N[C@H](C)c2ccc(-n3cccn3)cc2)cs1 | 9.30 |  |  | 6.59 | 
COc1cc2c(cc1OC)[C@H](c1ccc(Cl)cc1)N(C(=O)[C@H](O)[C@@H](O)C(=O)N[C@H](C)c1ccc(-n3cccn3)cc1)CC2 | 8.59 |  |  |  | 
C[C@@H](NC(=O)[C@H](O)[C@@H](O)C(=O)N1CCCCC1c1cccc(Cl)c1)c1ccc(-n2cccn2)cc1 (mixture of isomers) | 7.06 |  |  |  | 
CNc1nc([C@H]2c3cc(F)ccc3CN2C(=O)[C@H](O)[C@@H](O)C(=O)N[C@H](C)c2ccc(-n3cccn3)cc2)cs1 | 7.80 |  | 0.237 | 6.42 | 

Structure (SMILES) | pKi [1] | concentration at 6 h [2] [µM] | AUC at 6 h [3] [µM·h] | pIC50 [4] | pKi [5]
CNc1nc([C@H]2CCCN2C(=O)[C@H](O)[C@@H](O)C(=O)N[C@H](C)c2ccc(-n3cccn3)cc2)cs1 | 8.15 | 2.54 | 30.7 | 5.24 | 
C[C@@H](NC(=O)[C@H](O)[C@@H](O)C(=O)N1CCC[C@@H]1c1ccn(C)n1)c1ccc(-n2cccn2)cc1 | 8.40 | 0.086 | 2.92 |  | 
CNc1nc([C@H]2CCCN2C(=O)[C@H](O)[C@@H](O)C(=O)N[C@H](C)c2ccc(-n3cccn3)cc2)c(C2CC2)s1 | 8.70 |  | 11.4 | 5.59 | 
CNc1nc([C@H]2CCCN2C(=O)[C@H](O)[C@@H](O)C(=O)N[C@H](C)c2ccc(-n3cccn3)cc2)c(C)s1 | 8.70 |  | 5.44 | 5.65 | 
CNc1nc([C@H]2CCCN2C(=O)[C@H](O)[C@@H](O)C(=O)N[C@H](C)c2ccc(-n3cccn3)cc2)c(C#N)s1 | 8.70 |  | 0.154 | 5.52 | 
CNc1nc([C@H]2C[C@@H]3C[C@@H]3N2C(=O)[C@H](O)[C@@H](O)C(=O)N[C@H](C)c2ccc(-n3cccn3)cc2)cs1 | 6.27 |  |  |  | 
COc1cc2c(cc1OC)[C@H](c1ccccc1)CN(C(=O)[C@H](O)[C@@H](O)C(=O)N[C@H](C)c1ccc(-n3cccn3)cc1)CC2 | 7.42 |  |  |  | 
COc1cc2c(cc1OC)C(c1ccccc1)N(C(=O)[C@H](O)[C@@H](O)C(=O)N[C@H](C)c1ccc(-n3cccn3)cc1)CC2 (mixture of isomers) | 9.05 |  | 1.24 |  | 
C[C@@H](NC(=O)[C@H](O)[C@@H](O)C(=O)N1CCC[C@@H]1c1csc(NC2CCC2)n1)c1ccc(-n2cccn2)cc1 | 8.40 | 3.54 | 31.4 | 5.67 | 
C[C@@H](NC(=O)[C@H](O)[C@@H](O)C(=O)N1CCCCC1c1ccccc1)c1ccc(-n2cccn2)cc1 (mixture of isomers) | 7.85 |  |  |  | 
CNc1nc([C@H]2CCCN2C(=O)[C@H](O)[C@@H](O)C(=O)N[C@H](C)c2ccc(-n3cccn3)cc2)c(-c2ccc(F)cc2)s1 | 9.00 |  |  | 5.49 | 
C[C@@H](NC(=O)[C@H](O)[C@@H](O)C(=O)N1CCC[C@@H]1c1cc[nH]n1)c1ccc(-n2cccn2)cc1 | 8.30 |  | 0.578 |  | 
CC(C)Nc1nc([C@H]2CCCN2C(=O)[C@H](O)[C@@H](O)C(=O)N[C@H](C)c2ccc(-n3cccn3)cc2)cs1 | 7.77 | 12.3 | 115 | 5.18 | 
C[C@@H](NC(=O)[C@H](O)[C@@H](O)C(=O)N1CCC[C@@H]1c1csc(N)n1)c1ccc(-n2cccn2)cc1 | 8.22 | 0.247 | 2.28 | 5.37 | 
CCNc1nc([C@H]2CCCN2C(=O)[C@H](O)[C@@H](O)C(=O)N[C@H](C)c2ccc(-n3cccn3)cc2)cs1 | 8.15 | 5.97 | 52 | 5.29 | 
CNc1nc([C@H]2C[C@H]3C[C@H]3N2C(=O)[C@H](O)[C@@H](O)C(=O)N[C@H](C)c2ccc(-n3cccn3)cc2)cs1 | 9.00 |  | 0.925 | 6.15 | 
C[C@@H](NC(=O)[C@H](O)[C@@H](O)C(=O)N1CCC[C@]1(C)c1cccc(Cl)c1)c1ccc(-n2cccn2)cc1 | 9.40 |  | 1.47 |  | 
C[C@@H](NC(=O)[C@H](O)[C@@H](O)C(=O)N1CCCCC1c1ccc(Cl)cc1)c1ccc(-n2cccn2)cc1 (mixture of isomers) | 7.66 |  |  |  | 
C[C@@H](NC(=O)[C@H](O)[C@@H](O)C(=O)N1CCC[C@@H]1c1csc(Nc2ccccc2F)n1)c1ccc(-n2cccn2)cc1 | 9.00 |  | 0.13 | 5.94 | 
